Data from patent US12552744B2, “Method for producing monosulfoxide derivative” (KUMIAI CHEMICAL INDUSTRY CO., LTD., priority 2020, dated 2026).

Test: Solubility of the compound in solvents
Type: physicochemical
Conditions: at 5° C.

## [O-][S+](CC(F)(F)F)c1cc(OCCCCCSC(F)(F)F)c(F)cc1Cl (stereo not shown) [B-a, 5-trifluoromethylthiopentyl-[4-chloro-2-fluoro-5-(2,2,2-trifluoroethylsulfinyl)phenyl]ether]
  solubility in a mixed solution of 70 wt. % t-butanol/water: about 2 wt. %
